In patent US20180021460A1, “PROBES AND METHODS FOR DETECTING AMYLOIDOGENIC PROTEINS” (Academia Sinica, priority 2016, published 2018):
Non-standard residues stand in square brackets, D forms with d. No end group written: not given here. o‑nitrobenzyl photocleavable linker = o-nitrobenzyl photocleavable moiety placed between the 8R peptide and the amyloidogenic sequence; Alexa568 = Alexa568 fluorophore linked to the cysteine residue

Legend:
[1] = Transmission electron microscopy (vesicle size, fibril formation); format: physicochemical; settings: upon illumination 335-379 nm, 8.24 mW/cm^2, 3 mins
Protocol: Transmission Electron Microscopy
The resulting aliquots of peptide solutions (5 μL) were applied on glow-charged 300 mesh formvar- and carbon-coated copper grids stained with 1% uranyl acetate. After drying overnight, all samples were analyzed using a JEM-2011 electron microscope (JEOL, Japan).

EGFP-TDP-43 in N2A cells [2] = assay: EGFP-TDP-43 aggregation / co-localization in JHR2-treated N2A cells (confocal); format: cell-based, mouse
Protocol: (§1) Cell Maintenance, Peptide Treatment, and Photolysis
(§2) Mouse neuroblastoma N2A cells (generous gift from Dr. Yijuang Chern, IBMS, Academia Sinica) were cultured in Dulbecco's modified Eagle's medium (DMEM) (Invitrogen) supplemented with 2 mM glutamine, 10% heat-inactivated fetal bovine serum and 100 U/mL penicillin-streptomycin (Invitrogen) at 37° C. in a humidified atmosphere with 5% CO2. Before peptide incubation, cells were treated with 5-aminoimidazole-4-carboxamide-1-β-D-ribofuranoside (AICAR) to induce the cytoplasmic mislocalization of TDP-43. JHR2 was prepared by dissolving the lyophilized powder in the cell culture medium. Cells were incubated with polypeptide-containing medium for 3 hr, washed, and UV-illuminated (mercury lamp with 345-385 nm bandpass filter, average power: 8.24 mW/cm^2).
Confocal and Super-Resolution Fluorescence Microscopy with Airy Scan
(§3) For EGFP-TDP-43 expression, 2×10^5 of N2A cells in a 30-mm square coverslip were transfected with 1 μg of full-length TDP-43-EGFP plasmid with TurboFect Transfection Reagent (Thermo Scientific) according to the manufacturer's protocol. After peptide and photolysis treatment as described above, cells were incubated for an additional 24 hr and then fixed with 4 paraformaldehyde. Confocal images were captured with LSM 880 and super resolution imaging was performed with Airy Scan (Zeiss, Germany). […]

[3] = test system: endogenous TDP-43 in N2A cells; assay: Endogenous TDP-43 aggregates in N2A cells (immunostaining, high content analysis); format: cell-based, mouse; settings: pinhole-confined UV light spot, 24 hr incubation
Protocol: as §1, §2, §3

EGFP-TDP-43 in N2A cells [4] = assay: Time-lapse living cell fluorescence microscopy and Annexin V staining; format: cell-based, mouse
Protocol: Time-lapse Living Fluorescence Cell Microscopy and Annexin V Staining
N2A cells (5×10^4) were transfected with 1 μg of full-length TDP-43-EGFP in a sterilized 35 mm μ-Dish (Ibidi, Martinsried, Germany). The living cells were imaged with a Nikon TiE inverted microscope equipped with a Tokai-hit constant humidity chamber (37° C., 5% CO2) for 25 hr. Hoechst, EGFP, Aleax Fluor 568 and Cy5 cube filters were used to collect the fluorescence emission accordingly. Cellular images were captured with an Andor iXon3 888 back-illuminated high sensitivity EMCCD camera. Images were analyzed and quantified using Nikon NIS element software. After 24 hr of peptide treatment, the cells were washed twice with PBS, washed once with 1× Annexin V binding buffer, incubated with Annexin V-Cy5 (BioVision, USA) at room temperature and imaged.

EGFP-TDP-43 in N2A cells [5] = assay: Microinjection of probe into N2A cells and irradiation; format: cell-based, mouse; settings: N2A cells microinjected, data not shown
Description: The glass microneedles for microinjection (1B100-F4, World Precision Instruments, USA) were pulled with a PC-10 capillary puller (Narishige, Japan). […] A Picospriterzer III microinjection system and a joystick micromanipulator (Narishige, Japan) mounted with a stage-side of a microscope (IX-71, Olympus, Japan) were used for delivering the peptide solution into the cytosol of N2A cells. After microinjection (injection pressure, 80 hPa; injection time, 100 msec; compensation pressure, 20 hPa), cells were subsequently rinsed with 2 mL of L-15 medium supplemented with 10% FBS for 1 hr of recovery.

[6] = test system: Ran (RAS-related nuclear protein); assay: Localization of endogenous Ran in JHR2-treated cells; format: cell-based
Protocol: as §2
For EGFP-TDP-43 expression, 2×10^5 of N2A cells in a 30-mm square coverslip were transfected with 1 μg of full-length TDP-43-EGFP plasmid with TurboFect Transfection Reagent (Thermo Scientific) according to the manufacturer's protocol. After peptide and photolysis treatment as described above, cells were incubated for an additional 24 hr and then fixed with 4 paraformaldehyde. Confocal images were captured with LSM 880 and super resolution imaging was performed with Airy Scan (Zeiss, Germany). For immunostaining, anti-TDP-43 antibody (Abcam, ab104223) and anti-Ran (Abcam, ab155103) antibody were used, respectively.

TDP-43 and importin-α1 = assay: Localization of endogenous TDP-43 and importin-α1 in JHR2-treated cells; format: cell-based

Substance: JHR2: Same peptide probe as JHR1 with Alexa568 fluorophore linked to the cysteine residue instead of tert-butyl thiol (RRRRRRRR[o‑nitrobenzyl photocleavable linker]MGGGMNFGAFSINPAMC(Alexa568)-NH2)
- time to detection of massive fibrils (TEM) [1]: ≤ 4 h
- aggregates of JHR2 and EGFP-TDP-43 after irradiation (EGFP-TDP-43 in N2A cells [2]; AICAR pretreated, 24 hrs after non-focused light 335-379 nm, 8.24 mW/cm^2, 3 mins): developed pronounced aggregates and/or inclusion bodies that were largely co-localized in the cytosol
- cell penetration (EGFP-TDP-43 in N2A cells [2]; JHR2 1 μM, 3 hr): may quickly penetrate cells
- seeding of endogenous TDP-43 cytosolic aggregation within confined illuminated area [3]: selectively induced the JHR2 amyloid to “seed” endogenous TDP-43 cytosolic aggregation
- time at which EGFP-TDP-43 puncta became detectable (EGFP-TDP-43 in N2A cells [4]; N2A cells expressing EGFP-TDP-43, with JHR2, after illumination): Twenty hours after illumination, the EGFP-TDP-43 puncta became detectable
- apoptosis by Annexin V staining (EGFP-TDP-43 in N2A cells [4]; N2A cells with EGFP-TDP-43 inclusion bodies, end of time course 25 hr): on the verge of apoptosis
- onset of EGFP-TDP43 aggregation after microinjection and irradiation (EGFP-TDP-43 in N2A cells [5]): 4 h
- onset of clustering of JHR2 after microinjection and irradiation (EGFP-TDP-43 in N2A cells [5]): 2 h
- Ran protein miss-localized into the cytoplasm ([6]; +JHR2+Light): > 90%
- Ran localization, probe-treated only (no light) ([6]; +JHR2−Light): mainly resided in the nucleus
- TDP-43 and importin-α1 localization under photoactivation (TDP-43 and importin-α1; +JHR2+Light): translocated from the nucleus to cytosol and formed aggregates
- importin-α1 localization, probe-treated only (no light) (TDP-43 and importin-α1; +JHR2−Light): mainly remained in the nucleus
